These results are taken from patent EP0323737A1, “4-Aralkyl-5-substituted-1,2,4-triazole-5-thiols” (SMITHKLINE BECKMAN CORPORATION, priority 1987, dated 1989).

For data set [1] the following is noted: Teresawa et al., Japan Cir. J. 35, 339 (1971); cited from earlier work.
Data set [2] relates to spontaneously hypertensive rats. Description: mean arterial blood pressure in spontaneously hypertensive rats after oral dosing. The class given is in vivo. The following applies: 50 mg/kg orally, compared to vehicle-treated controls, approximate. The procedure:
Further, spontaneously hypertensive rats were treated with a suspension or solution of 3-mercapto-4-benzyl-5-n- heptyl-1,2,4-triazole at a dose of 50 mg/kg orally, and mean arterial blood pressure was monitored for 260 minutes using indwelling cannulae in the tail arteries. […] Maximal blood pressure reduction was approximately 10 to 35 mm Hg.

For the compound `CCCCc1ccc(C(=O)O)nc1` [fusaric acid], the toxic effect entry in data set [1] is “hepatotoxic”.
In the case of `CCCCCCCc1nnc(S)n1Cc1ccccc1` [Example 35, 3-Mercapto-4-benzyl-5-n-heptyl-1,2,4-triazole], the “time after treatment to significant blood pressure reductions” value in data set [2] was at most 30 min.
